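Cultured in 96-well plates, cells were exposed to test compound for 48 hours across five concentrations. GI50 = concentration required for 50% inhibition of growth.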 The source made the active and inactive calls. Rule as the data show it: active = GI50 up to about 1.1 µM and inactive = higher.
Columns and labels:
Test in all cases: NCI tumour cell line growth inhibition, 48 h
HCT-15 = tested on: HCT-15
NCI-H460 = tested on: NCI-H460
SNB-75 = tested on: SNB-75
UO-31 = tested on: UO-31
A498 = tested on: A498
UACC-257 = tested on: UACC-257
CAKI-1 = tested on: CAKI-1
UACC-62 = tested on: UACC-62
MOLT-4 = tested on: MOLT-4
K562 = tested on: K562
SK-MEL-28 = tested on: SK-MEL-28
A549 = tested on: A549
OVCAR-4 = tested on: OVCAR-4
SF-539 = tested on: SF-539
HT-29 = tested on: HT-29
CCRF-CEM = tested on: CCRF-CEM
NCI-H23 = tested on: NCI-H23
HOP-62 = tested on: HOP-62
SF-268 = tested on: SF-268

Row | Structure (SMILES) | GI50 (HCT-15) [µM] | GI50 (NCI-H460) | GI50 (SNB-75) | GI50 (UO-31) | GI50 (A498) | GI50 (UACC-257) | GI50 (CAKI-1) | GI50 (UACC-62) | GI50 (MOLT-4) | GI50 (K562) | GI50 (SK-MEL-28) | GI50 (A549) | GI50 (OVCAR-4) | GI50 (SF-539) | GI50 (HT-29) | GI50 (CCRF-CEM) | GI50 (NCI-H23) | GI50 (HOP-62) | GI50 (SF-268)
1 | Cc1ccccc1NC(=O)C(=O)C(C1OC(=O)c2ccccc21)[N+](=O)[O-] (stereo not given) | > 100 | > 100 µM (inactive) | > 100 µM (inactive) | > 100 µM (inactive) | > 100 µM (inactive) | > 100 µM (inactive) | > 100 µM (inactive) | > 100 µM (inactive) | > 100 µM (inactive) | > 100 µM (inactive) | > 100 µM (inactive) | > 100 µM (inactive) | > 100 µM (inactive) | > 100 µM (inactive) | > 100 µM (inactive) | 68.7 µM (inactive) | > 100 µM (inactive) | > 100 µM (inactive) | > 100 µM (inactive)
2 | C/C(=C\C(=O)Nc1ccc2[nH]nnc2c1)Nc1ccc2[nH]nnc2c1 | > 100 | > 100 µM (inactive) | > 100 µM (inactive) | > 100 µM (inactive) | > 100 µM (inactive) | > 100 µM (inactive) | > 100 µM (inactive) | > 100 µM (inactive) | > 100 µM (inactive) | > 100 µM (inactive) | > 100 µM (inactive) | > 100 µM (inactive) | > 100 µM (inactive) | > 100 µM (inactive) | > 100 µM (inactive) | > 100 µM (inactive) | > 100 µM (inactive) | > 100 µM (inactive) | > 100 µM (inactive)
3 | O=[N+]([O-])c1ccc(-n2nnc(C3=NCCCN3)c2-c2ccc(Cl)cc2)cc1 | > 100 | > 100 µM (inactive) | > 100 µM (inactive) | 42.3 µM (inactive) | > 100 µM (inactive) | 67.1 µM (inactive) | > 100 µM (inactive) | > 100 µM (inactive) | 79.3 µM (inactive) | 61.1 µM (inactive) | 32.7 µM (inactive) | > 100 µM (inactive) | > 100 µM (inactive) | > 100 µM (inactive) | 58.5 µM (inactive) | > 100 µM (inactive) | > 100 µM (inactive) | > 100 µM (inactive) | > 100 µM (inactive)
4 | CC(C)N/C(N)=N/C#N | > 100 | > 100 µM (inactive) | > 100 µM (inactive) | > 100 µM (inactive) | > 100 µM (inactive) | > 100 µM (inactive) | > 100 µM (inactive) | > 100 µM (inactive) | > 100 µM (inactive) | > 100 µM (inactive) |  | > 100 µM (inactive) | > 100 µM (inactive) | > 100 µM (inactive) | > 100 µM (inactive) | > 100 µM (inactive) |  | > 100 µM (inactive) | > 100 µM (inactive)
5 | CCOC(=O)CC1=N/C(=N/C(=N)N[N+](=O)[O-])SC1 | > 100 | > 100 µM (inactive) | > 100 µM (inactive) | > 100 µM (inactive) | > 100 µM (inactive) | > 100 µM (inactive) | > 100 µM (inactive) | > 100 µM (inactive) |  | > 100 µM (inactive) | > 100 µM (inactive) | > 100 µM (inactive) | > 100 µM (inactive) | > 100 µM (inactive) | > 100 µM (inactive) | > 100 µM (inactive) | > 100 µM (inactive) | > 100 µM (inactive) | > 100 µM (inactive)
6 | COC1/C=C/C=C(/C)Cc2cc(O)c(Cl)c(c2)N(C)C(=O)CC(OC(=O)C(C)C)C2(C)OC2C(C)C2CC1(O)NC(=O)O2 (stereo not given) | < 0.01 | < 0.01 µM (active) | < 0.01 µM (active) | < 0.01 µM (active) | < 0.01 µM (active) | 4.89 µM (inactive) | 21.2 µM (inactive) | < 0.01 µM (active) | < 0.01 µM (active) | < 0.01 µM (active) |  | < 0.01 µM (active) | < 0.01 µM (active) | < 0.01 µM (active) | < 0.01 µM (active) | 0.394 µM (active) | < 0.01 µM (active) | 0.0673 µM (active) | < 0.01 µM (active)

Source: ChEMBL document CHEMBL1201862, “PubChem BioAssay data set” (2004)
